Measured values as given in US20090124631A1, “Combination Therapy” (priority 2007, published 2009).
Entries after “also recorded” stand apart in the source; their conditions may differ.

Key:
[1] = system: VEGF expression in DU145 cells; test: VEGF transcription in Du145 cells in vitro; format: cell-based, human; conditions: 24 hour treatment
Protocol: (§1) Human prostate cancer Du145 cells were exposed to Cpd A or SAHA (3 microM) for 24 hours. Total RNA was collected by Isogen (Nippongene, Tokyo, Japan) and reverse-transcribed to cDNA by ExScript® RT reagent Kit (TAKARA, Kyoto, Japan). The expression level of bFGF mRNA was detected by ABI7700 analyzer using probe/primer pre-mixture reagent (ABI, Cat# Hs00266645_m1, CA, USA) and TaqMan® Universal PCR Master Mix (ABI, Cat# 430-4437) as described in the ABI's protocol. The expression level of VEGF mRNA was detected in a similar manner using the appropriate probe/primer reagents.

[2] = system: VEGF expression in A549 (NSCLC) xenografts; test: VEGF expression in A549 xenografts; format: in vivo; conditions: 150 mg/kg, p.o., qdx3
[3] = system: MT3 transcription in implanted H460 tumors; test: MT3 transcription in implanted H460 tumors in vivo; design: species or system mouse; conditions: H460 tumors in mice, single dose 100 mg/kg po
Protocol: 6 hours or 24 hours post drug administration, mice were sacrificed and tumor excised and put in RNAlater (Ambion, Austin, Tex.) and stored at −70 C until RNAs were extracted using QiaShredder and RNeasy mini kit (Qiagen). For real time RT-PCR to determine MT3 transcription level, 1 μg RNA was converted into cDNA using Expand RT enzyme (Roche) and Oligo(dT) primers (Invitrogen) in a 20 μl reaction volume. For quantitative real-time PCR, the primers used for MT3 were 5′CCCTGCGGAGTGTGAGAAGT 3′ and 5′TGCTTCTGCCTCAGCTGCCT 3′ and those for β-actin were 5′CTCTTCCAGCCTTCCTTCCT 3′ and 5′AGCACTGTGTTGGCGTACAG 3′. Reactions with either pair of primers included an annealing temperature of 63.4° C. All real-time PCR reactions were performed on the MasterCycler ep Realplex (Eppendorf) using FastStart SYBRGreen Master (Roche).

[4] = system: human H460 non-small cell lung tumor xenograft; test: H460 xenograft, iv-iv combination with taxol; format: in vivo, mouse; conditions: H460, Compound A 40 mg/kg i.v. with taxol 60 mg/kg i.v., single dose day 1
Protocol: Antitumor studies were done using human H460 non-small cell lung tumor xenograft model in male BALBc/A nude mice (from Japan Crea Inc., Japan). Male nude mice were used at age 8-10 weeks. Human carcinoma cells were injected subcutaneously in the animal flank and allowed to form solid tumors. Tumor fragments (about 2 mm^3 fragments) were then removed and implanted subcutaneously to the right flank of other animals. […] Tumor volumes and gross body weight of animals were monitored twice weekly for up to 15 days. Each experimental group contained 6 animals.

[5] = system: bFGF transcription in human prostate cancer Du145 cells; test: bFGF transcription in Du145 cells in vitro; format: cell-based; conditions: 3 μM, 24 hour treatment
Protocol: as §1

HDAC3 = biological target: T1, HDAC3 (Homo sapiens, UniProt O15379); test: Fluorescence-based HDAC enzyme assay, recombinant HDAC3; format: biochemical; conditions: recombinant human HDAC enzyme in vitro; read-out: IC50 (μM) HD3
T1 construct: cDNAs corresponding to the full length human HDAC1, 2, 3 and 11 were cloned into pBlueBac4.5 vector; FLAG (C); made in house; host or cells: Sf-9 insect cells (baculovirus)
Excerpt: cDNAs of human HDAC1-8 and 11 were generated by RT-PCR reactions using primers complementary to the 5′ and 3′ coding sequence of human HDAC gene sequences in GenBank. cDNAs corresponding to the full length human HDAC1, 2, 3 and 11 were cloned into pBlueBac4.5 vector (Invitrogen). The constructs were used to generate recombinant baculoviruses using the Bac-N-Blue™ DNA according to the manufacturer's instructions (Invitrogen). The recombinant HDAC1, 2, 3, 11 proteins produced harbor a FLAG tag at their C-termini. cDNAs encoding truncated versions of HDAC4, 5 and 7 encompassing their deacetylase domains were cloned into pDEST10 as an N-terminal hexahistidine fusion protein and recombinant baculoviruses were generated using the Bac-to-Bac™ Baculovirus expression system (Invitrogen). HDAC6 and 8 were cloned as full length N-terminally His-tagged protein. All HDAC proteins were expressed in insect Sf-9 cells (Spodoptera frugiperdai) upon infection with recombinant baculovirus. HDAC1 enzyme was purified from the Q-sepharose FF column (Amersham Pharmacia Biotech, Baie d'Urfe QC, Canada) followed by an anti-FLAG immunoaffinity column (Sigma). HDAC2, 3 and 11 were purified using Flag-antibody immunoaffinity purification. HDAC4, 5, 6, 7 and 8 were purified using either Ni-NTA resin (QIAGEN Mississauga ON, Canada) or His-Select resin (Sigma) with step washes and elution with different concentrations of imidazole in Buffer containing 25 mM Tris (or NaPO4) pH 8.0, 10% glycerol and 150 mM or 500 mM NaCl.
Recombinant HDAC enzymes were incubated with diluted compounds in assay buffer (25 mM Hepes, pH 8.0, 137 mM NaCl, 1 mM MgCl2 and 2.7 mM KCl) for 10 minutes at ambient temperatures in black 96-well plate. Boc-Lys(Ac)-AMC (for HDAC1, 2, 3, 6, and 8 enzymes), which was purchased from Bachem Biosciences Inc., (King of Prussia, Philadelphia) were added into enzyme-compound mixture and incubated at 37° C. […] After 30 minutes, fluorescence was measured using a fluorometer (SPECTRAMAX GeminiXS, Molecular Devices, Sunnylvale, Calif.). […]

[6] = system: MT3 transcription in human colon cancer HCT15 cells; test: MT3 transcription in HCT15 cells, microarray analysis; format: cell-based; conditions: 1 uM
Excerpt: Total RNAs were extracted and RNA quality analysis was done using Agilent 2100 bioanalyzer and Agilent's RNA Labchip kits. RNAs were labeled with either Cy3 or Cy5 using Agilent's optimized labeling kits and hybridized to Human whole genome 44K Oligo Microarray (Agilent, Palo Alto, Calif.). Slides were scanned using DNA microarry scanner from Agilent and the raw data was extracted using Agilent's image analysis tool (feature extraction software). Normalization and statistical analysis were performed using GeneSpring software. Biological analysis was performed using Biointerpreter software.

T1 sequence (O15379 whole entry): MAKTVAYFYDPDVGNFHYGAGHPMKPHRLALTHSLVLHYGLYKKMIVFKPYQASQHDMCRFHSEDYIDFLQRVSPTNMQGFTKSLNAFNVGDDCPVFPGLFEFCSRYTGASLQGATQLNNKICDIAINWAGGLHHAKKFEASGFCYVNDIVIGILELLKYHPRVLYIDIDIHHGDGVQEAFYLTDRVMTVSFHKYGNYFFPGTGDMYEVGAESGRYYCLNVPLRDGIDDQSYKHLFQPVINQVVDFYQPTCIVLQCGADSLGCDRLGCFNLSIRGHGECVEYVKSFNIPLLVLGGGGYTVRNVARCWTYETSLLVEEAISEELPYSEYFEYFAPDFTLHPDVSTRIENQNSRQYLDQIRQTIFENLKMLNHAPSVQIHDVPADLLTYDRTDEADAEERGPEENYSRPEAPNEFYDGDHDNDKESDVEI

IC50 (HDAC3) [µM]	SMILES	VEGF expression [1]	VEGF expression [2]	MT3 transcription in tumors [3]	antitumor activity of taxol [4]	bFGF transcription [5]	MT3 transcription [6]
	Nc1ccccc1NC(=O)c1ccc(CNc2nccc(-c3cccnc3)n2)cc1 [Compound A]	suppression	suppression	induction	Potentiation	more dramatic than by SAHA; also recorded: suppression	
0.3	Nc1ccccc1NC(=O)c1ccc(N2CC[C@H](Nc3cccnc3)C2)cc1 [Compound B]						
9	Nc1ccc(-c2ccccc2)cc1NC(=O)c1ccc(N2CC[C@H](N)C2)cc1 [Compound D]						induction
